Assay results: patent publication US6770287B1, “Biocidal cellulosic material” (The Regents of the University of California, priority 2000, dated 2004)

How the values were obtained:
E. coli = experiment: AATCC Test Method 100 quantitative antibacterial test (bacterial reduction); format: cell-based, Escherichia coli (ATCC 2666); settings: contact time 60 min
From the text: (§1) AATCC Test Method 100 was adopted in this study. According to this test method, four pieces of staked circular fabric swatches 4.8±0.1 (about one grams) were inoculated with 1.0±0.1 milliliter of inoculum in a 250 milliliter jar. The inoculum was a nutrient broth culture containing over 1.0×10^6 clone forming units (CFU) of organisms. After the swatches were inoculated, they were neutralized by 100 milliliter of a 0.02% sodium thiosulfate solution in the jar. The contact time was the time between inoculation and neutralization. The jar was vigorously shaken and the neutralized solution was diluted in serial. The dilutions, usually 100, 101, and 102, were plated on nutrient agar and incubated for 18-24 hours at 37° C. The number of bacteria recovered from the inoculated finished fabrics was counted and compared with that from untreated fabrics. Six log reduction means the total inactivation of bacteria, and one log reduction means that finished fabrics reduced bacteria counts from 106 CFU to 105 CFU.
(§2) Finished fabrics prepared from solutions containing 1%-6% of monomethylol-5,5-dimethylhydantoin following the protocol set forth in Example 1 with pickup rates below 1% have been tested.
(§3) Fabrics finished in accordance with the protocol set forth in Example II with Anti-2, i.e., 1,3-dimethylol-5,5-dimethylhydantoin, were also tested with AATCC test method 100, which was briefly described in Example IV. In the tests, a diluted CLOROX® solution containing 0.01 % active chlorine was used to chlorinate the finished fabrics.

S. aureus = experiment: as above; format: cell-based, Staphylococcu aureus (ATCC 5368); settings: contact time 60 min
From the text: as §1, §2, §3

[1] = Anti-2 2%, #400, last column pair
[2] = Anti-2 2%, #7409, last column pair
[3] = Anti-2 6%, #400, last column pair
[4] = Anti-2 6%, #7409, last column pair
[5] = Anti-2 10%, #400, last column pair
[6] = Anti-2 10%, #7409, last column pair

CC1(C)C(=O)N(CO)C(=O)N1CO [Anti-2, 1,3-dimethylol-5,5-dimethylhydantoin]
6 log: Durable Antibacterial Properties After fifteen washes E. coli (E. coli; Anti-2 2%, #400) | Durable Antibacterial Properties After five washes E. coli (E. coli; Anti-2 2%, #400) | Durable Antibacterial Properties After ten washes E. coli (E. coli; Anti-2 2%, #400) | Durable Antibacterial Properties After twenty washes E. coli (E. coli; Anti-2 2%, #400) | Durable Antibacterial Properties After twenty washes E. coli (E. coli; [1]) | Durable Antibacterial Properties After fifteen washes E. coli (E. coli; Anti-2 2%, #7409) | Durable Antibacterial Properties After five washes E. coli (E. coli; Anti-2 2%, #7409) | Durable Antibacterial Properties After ten washes E. coli (E. coli; Anti-2 2%, #7409) | Durable Antibacterial Properties After twenty washes E. coli (E. coli; Anti-2 2%, #7409) | Durable Antibacterial Properties After twenty washes E. coli (E. coli; [2]) | Durable Antibacterial Properties After fifteen washes E. coli (E. coli; Anti-2 6%, #400) | Durable Antibacterial Properties After five washes E. coli (E. coli; Anti-2 6%, #400) | Durable Antibacterial Properties After ten washes E. coli (E. coli; Anti-2 6%, #400) | Durable Antibacterial Properties After twenty washes E. coli (E. coli; Anti-2 6%, #400) | Durable Antibacterial Properties After twenty washes E. coli (E. coli; [3]) | Durable Antibacterial Properties After fifteen washes E. coli (E. coli; Anti-2 6%, #7409) | Durable Antibacterial Properties After five washes E. coli (E. coli; Anti-2 6%, #7409) | Durable Antibacterial Properties After ten washes E. coli (E. coli; Anti-2 6%, #7409) | Durable Antibacterial Properties After twenty washes E. coli (E. coli; Anti-2 6%, #7409) | Durable Antibacterial Properties After twenty washes E. coli (E. coli; [4]) | Durable Antibacterial Properties After fifteen washes E. coli (E. coli; Anti-2 10%, #400) | Durable Antibacterial Properties After five washes E. coli (E. coli; Anti-2 10%, #400) | Durable Antibacterial Properties After ten washes E. coli (E. coli; Anti-2 10%, #400) | Durable Antibacterial Properties After twenty washes E. coli (E. coli; Anti-2 10%, #400) | Durable Antibacterial Properties After twenty washes E. coli (E. coli; [5]) | Durable Antibacterial Properties After fifteen washes E. coli (E. coli; Anti-2 10%, #7409) | Durable Antibacterial Properties After five washes E. coli (E. coli; Anti-2 10%, #7409) | Durable Antibacterial Properties After ten washes E. coli (E. coli; Anti-2 10%, #7409) | Durable Antibacterial Properties After twenty washes E. coli (E. coli; Anti-2 10%, #7409) | Durable Antibacterial Properties After twenty washes E. coli (E. coli; [6]) | Durable Antibacterial Properties After fifteen washes S. aur. (S. aureus; Anti-2 2%, #400) | Durable Antibacterial Properties After five washes S. aur. (S. aureus; Anti-2 2%, #400) | Durable Antibacterial Properties After ten washes S. aur. (S. aureus; Anti-2 2%, #400) | Durable Antibacterial Properties After twenty washes S. aur. (S. aureus; Anti-2 2%, #400) | Durable Antibacterial Properties After twenty washes S. aur. (S. aureus; [1]) | Durable Antibacterial Properties After fifteen washes S. aur. (S. aureus; Anti-2 2%, #7409) | Durable Antibacterial Properties After five washes S. aur. (S. aureus; Anti-2 2%, #7409) | Durable Antibacterial Properties After ten washes S. aur. (S. aureus; Anti-2 2%, #7409) | Durable Antibacterial Properties After twenty washes S. aur. (S. aureus; Anti-2 2%, #7409) | Durable Antibacterial Properties After twenty washes S. aur. (S. aureus; [2]) | Durable Antibacterial Properties After fifteen washes S. aur. (S. aureus; Anti-2 6%, #400) | Durable Antibacterial Properties After five washes S. aur. (S. aureus; Anti-2 6%, #400) | Durable Antibacterial Properties After ten washes S. aur. (S. aureus; Anti-2 6%, #400) | Durable Antibacterial Properties After twenty washes S. aur. (S. aureus; Anti-2 6%, #400) | Durable Antibacterial Properties After twenty washes S. aur. (S. aureus; [3]) | Durable Antibacterial Properties After fifteen washes S. aur. (S. aureus; Anti-2 6%, #7409) | Durable Antibacterial Properties After five washes S. aur. (S. aureus; Anti-2 6%, #7409) | Durable Antibacterial Properties After ten washes S. aur. (S. aureus; Anti-2 6%, #7409) | Durable Antibacterial Properties After twenty washes S. aur. (S. aureus; Anti-2 6%, #7409) | Durable Antibacterial Properties After twenty washes S. aur. (S. aureus; [4]) | Durable Antibacterial Properties After fifteen washes S. aur. (S. aureus; Anti-2 10%, #400) | Durable Antibacterial Properties After five washes S. aur. (S. aureus; Anti-2 10%, #400) | Durable Antibacterial Properties After ten washes S. aur. (S. aureus; Anti-2 10%, #400) | Durable Antibacterial Properties After twenty washes S. aur. (S. aureus; Anti-2 10%, #400) | Durable Antibacterial Properties After twenty washes S. aur. (S. aureus; [5]) | Durable Antibacterial Properties After fifteen washes S. aur. (S. aureus; Anti-2 10%, #7409) | Durable Antibacterial Properties After five washes S. aur. (S. aureus; Anti-2 10%, #7409) | Durable Antibacterial Properties After ten washes S. aur. (S. aureus; Anti-2 10%, #7409) | Durable Antibacterial Properties After twenty washes S. aur. (S. aureus; Anti-2 10%, #7409) | Durable Antibacterial Properties After twenty washes S. aur. (S. aureus; [6])
